Measurements reported in US20110230430A1, “SAPONIN EXTRACT FROM SAPONARIA SPP. AND USES THEREOF” (NATIONAL RESEARCH COUNCIL OF CANADA, priority 2008, published 2011).

How the values were obtained:
Type in all cases: cell-based, human
[1] = tested on: PC-3 (prostate cancer) cells; assay: Hoechst 33342 staining of PC-3 cells; details: 7 μM PC1448, 24 hours
Excerpt: (§1) Apoptosis can also be measured by Hoechst 33342 Staining. Cells undergoing apoptosis show several characteristic morphological changes. These changes include cell shrinkage and rounding, and the formation of cytoplasmic blebs on the cell surface. Nuclear material condenses along the edge of the nucleus followed by complete condensation and nuclear fragmentation (Hacker, G., 2000). Apoptotic cells eventually break up into membrane bound vesicles, which are known as apoptotic bodies. Hoechst 33342 is a fluorescent DNA-binding dye that allows visualization of chromatin distribution within a cell. Apoptotic nuclei have highly condensed chromatin, often in crescent shapes around the periphery of the nucleus.
(§2) A further indication of apoptotic activity, in addition to the assays described above, can be derived from observations of changes in cell architecture evident after induction of apoptosis. Hoechst 33342 is a fluorescent DNA-binding dye that allows visualization of chromatin distribution within a cell.
(§3) Cells undergoing apoptosis show several characteristic morphological changes. These changes include cell shrinkage and rounding, and the formation of cytoplasmic blebs on the cell surface. Nuclear material condenses along the edge of the nucleus followed by complete condensation and nuclear fragmentation (Hacker, G., 2000). […]

[2] = tested on: MDA-MB-231 (breast cancer) cells; assay: Hoechst 33342 staining of MDA-MB-231 cells; details: 7 μM PC1448, 24 hours
Excerpt: as §1, §2, §3

PC-3 cells = assay: APO LOGIX Carboxyfluorescein Caspase 9 Detection Kit in PC-3 cells
Excerpt: In a still further apoptotic assay, apoptosis can be measured by the APO LOGIX™ Carboxyfluorescein Caspase 9 Detection Kit. The APO LOGIX™ Carboxyfluorescein Caspase 9 Detection Kit uses a cell permeable carboxyfluorescein labeled caspase inhibitor, which binds covalently to active caspases 9. Caspase 9 is involved in initiating apoptosis through the mitochondrial pathway (Budihardjo I., et al. 1999). Cells that contain bound inhibitor are detected by an increase in fluorescence when samples are analyzed by flow cytometry.
PC-3 cells (ATCC #CRL-1435) were derived from a prostate adenocarcinoma (Kaighn et al., 1979). They were maintained in RPMI 1640 medium (Gibco) supplemented with 10% fetal bovine serum (Cansera), 100 U/mL penicillin, and 100 μg/mL streptomycin and 0.25 μg/mL amphotericin B. Cultures were maintained in medium at 37° C. with 5% CO2 and 100% relative humidity.
PC-3 cells were seeded in tissue culture flasks with regular growth medium and maintained under normal conditions. After cells had adhered, the tissue culture medium was replaced with medium containing PC1448 dissolved in DMSO with the final concentration of DMSO not exceeding 0.05%. For each assay, a flask of untreated cells was grown in media containing the same amount of DMSO as in the PC1448 treated samples. Following incubation under normal growth conditions for the specified time, cells were washed once with cold phosphate-buffered saline (PBS) (137 mM NaCl, 2.7 mM KCl, 4.3 mM Na2HPO4.7H2O, 1.4 mM KH2PO4) and harvested as previously described. Assays were carried out according to instructions given in kits. All Flow Cytometry was performed using a Coulter Epics XL (Beckman).

[3] = tested on: CRL-2522 (normal fibroblast) cells; assay: Hoechst 33342 staining of CRL-2522 cells; details: 7 μM PC1448, 24 hours
Excerpt: as §1, §2, §3

MCF-7 cells = assay: Dual Sensor: MitoCasp Assay in MCF-7 breast cancer cells; details: 5 and 10 μM, 24 hours
Excerpt: Techniques to assay enzymatic and signaling processes involved in apoptosis have been developed as standard protocols. One example of an early step in apoptosis, is the release of cytochrome C from mitochondria and the activation of caspase-3. Induction of the caspases (a series of cytosolic proteases) is one of the most consistently observed features of apoptosis. Caspases are a family of proteolytic enzymes that transmit the apoptotic signal using a proteolytic cascade. […] Caspases 3 and 7 are effector caspases, central to the caspase cascade pathways. In particular, caspase-3 plays a central role in the process. […] Collapse of the mitochondrial membrane potential during apoptosis prevents the dye from accumulating in the mitochondria resulting in a decrease in fluorescent intensity that can be detected with flow cytometry. […] In this assay, caspase 3/7 activity is detected using a cell permeable carboxyfluorescein labeled caspase inhibitor, which binds covalently to active caspases 3 and 7. Cells that contain bound inhibitor are detected by an increase in fluorescence when samples are analyzed by flow cytometry. […]
MCF-7 cells were treated with 5.0 μM and 10 μM of saponins PC1526, PC1464 and PC1422 for 24 hours and assessed using Dual Sensor: MitoCasp™ Assay.

Row | Substance | Nuclear morphology after Hoechst 33342 staining (in words, FIG. 4) [1] | Nuclear morphology after Hoechst 33342 staining (in words, FIG. 4) [2] | Caspase 9 positive cells (PC-3 cells; 7 μM PC1448, 20 hr) [%] | Caspase 9 positive cells (PC-3 cells; 10 μM PC1448, 20 hr) [%] | Caspase 9 positive cells (PC-3 cells; 14 μM PC1448, 10 hr) [%] | Caspase 9 positive cells (PC-3 cells; 14 μM PC1448, 15 hr) [%] | Caspase 9 positive cells (PC-3 cells; 14 μM PC1448, 20 hr) [%] | Increase in cells with caspase 9 activity vs untreated (PC-3 cells; 14 μM PC1448, 20 hr (concentration range)) | Caspase 9 positive cells (PC-3 cells; 14 μM PC1448, 20 hr (concentration series)) [%] | Increase in cells showing caspase 9 activity vs untreated (PC-3 cells; 14 μM PC1448, 20 hr (time course)) | Caspase 9 positive cells (PC-3 cells; 14 μM PC1448, 40 hr) [%] | Caspase 9 positive cells (PC-3 cells; 17 μM PC1448, 20 hr) [%] | Nuclear morphology after Hoechst 33342 staining (in words, FIG. 4) [3] | Induction of apoptosis (in words, FIG. 16) (MCF-7 cells)
1 | Segetoside H [PC1448] | nuclear changes characteristic of apoptotic cells | nuclear changes characteristic of apoptotic cells | 47.7 | 73.9 | 37.3 | 44.2 | 48.0 | six fold | 75.3 | six fold | 29.4 | 65.6 | nuclear changes characteristic of apoptotic cells | –
2 | Segetoside I [PC1464] | – | – | – | – | – | – | – | – | – | – | – | – | – | do not induce apoptosis
